Measured values reported in ChEMBL document CHEMBL5465560, “Selectivity Literature for EUbOPEN Chemogenomic Library” (2024).
Values belong to the compound of their own block, whether it stands above or below them.

Assays:
[1] = target: RAF proto-oncogene serine/threonine-protein kinase (Homo sapiens) (UniProt P04049); assay: Selectivity interaction (Kinase panel (Invitrogen)) EUB0000639a RAF1; details: at 200 nM
[2] = target: T1, Serine/threonine-protein kinase TBK1 (Homo sapiens) (UniProt Q9UHD2); assay: Selectivity interaction (ActivX KiNativ screen (kinase selectivity in THP-1 cell lysates)) EUB0000639a TBK1; type: subcellular; details: lysate, at 5 µM
T1 sequence (whole entry): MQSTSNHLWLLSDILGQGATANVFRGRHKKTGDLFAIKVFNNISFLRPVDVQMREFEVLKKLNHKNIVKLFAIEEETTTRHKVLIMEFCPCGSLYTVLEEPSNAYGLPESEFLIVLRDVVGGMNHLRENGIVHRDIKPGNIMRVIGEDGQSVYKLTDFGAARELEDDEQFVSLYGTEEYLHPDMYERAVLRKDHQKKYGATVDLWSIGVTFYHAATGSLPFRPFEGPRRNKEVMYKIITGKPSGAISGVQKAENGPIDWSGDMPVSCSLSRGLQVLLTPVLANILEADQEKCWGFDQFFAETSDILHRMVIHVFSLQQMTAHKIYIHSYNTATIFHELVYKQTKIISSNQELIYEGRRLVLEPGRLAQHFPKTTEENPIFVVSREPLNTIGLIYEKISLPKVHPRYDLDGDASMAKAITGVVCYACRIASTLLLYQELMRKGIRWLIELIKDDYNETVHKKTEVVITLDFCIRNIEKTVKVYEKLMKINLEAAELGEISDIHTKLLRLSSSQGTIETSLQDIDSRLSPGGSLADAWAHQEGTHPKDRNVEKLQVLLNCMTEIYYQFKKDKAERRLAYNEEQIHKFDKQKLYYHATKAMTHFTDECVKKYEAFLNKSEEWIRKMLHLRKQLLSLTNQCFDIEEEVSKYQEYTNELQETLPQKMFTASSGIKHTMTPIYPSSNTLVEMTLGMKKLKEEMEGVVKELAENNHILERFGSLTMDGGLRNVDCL

[3] = target: Cyclin-dependent kinase 18 (Homo sapiens) (UniProt Q07002); assay: Selectivity interaction (KinomeScan (DiscoverX)) EUB0001049a CDK18; details: at 1 µM
[4] = target: Platelet-derived growth factor receptor alpha (Homo sapiens, UniProt P16234); assay: Selectivity interaction (KinomeScan (DiscoverX)) EUB0001079a PDGFRA; details: at 1 µM
Aurora kinase B = Aurora kinase B (Homo sapiens, UniProt Q96GD4); assay: Selectivity interaction (KinomeScan (DiscoverX)) EUB0001550a AURKB; details: at 1 µM
[5] = system: Tyrosine-protein kinase ABL1 (Homo sapiens), P00519 [H396P]; details: at 10 µM
[6] = target: Tyrosine-protein kinase JAK1 (Homo sapiens, UniProt P23458); details: at 10 µM
[7] = target: Atypical kinase COQ8A, mitochondrial (Homo sapiens, UniProt Q8NI60); assay: Selectivity interaction (KinomeScan (DiscoverX)) EUB0000618a ADCK3; details: at 10 µM
[8] = target: Ribosomal protein S6 kinase alpha-1 (Homo sapiens, UniProt Q15418); assay: Selectivity interaction (KinomeScan (DiscoverX)) EUB0000618a RPS6KA1; details: at 10 µM
[9] = target: T2, Serine/threonine-protein kinase LATS2 (Homo sapiens) (UniProt Q9NRM7); assay: Selectivity interaction (ActivX KiNativ screen (ex vivo kinase selectivity in human PBMCs)) EUB0001619a LATS2; type: cell-based; details: PBMC, at 1 µM
T2 sequence (whole entry): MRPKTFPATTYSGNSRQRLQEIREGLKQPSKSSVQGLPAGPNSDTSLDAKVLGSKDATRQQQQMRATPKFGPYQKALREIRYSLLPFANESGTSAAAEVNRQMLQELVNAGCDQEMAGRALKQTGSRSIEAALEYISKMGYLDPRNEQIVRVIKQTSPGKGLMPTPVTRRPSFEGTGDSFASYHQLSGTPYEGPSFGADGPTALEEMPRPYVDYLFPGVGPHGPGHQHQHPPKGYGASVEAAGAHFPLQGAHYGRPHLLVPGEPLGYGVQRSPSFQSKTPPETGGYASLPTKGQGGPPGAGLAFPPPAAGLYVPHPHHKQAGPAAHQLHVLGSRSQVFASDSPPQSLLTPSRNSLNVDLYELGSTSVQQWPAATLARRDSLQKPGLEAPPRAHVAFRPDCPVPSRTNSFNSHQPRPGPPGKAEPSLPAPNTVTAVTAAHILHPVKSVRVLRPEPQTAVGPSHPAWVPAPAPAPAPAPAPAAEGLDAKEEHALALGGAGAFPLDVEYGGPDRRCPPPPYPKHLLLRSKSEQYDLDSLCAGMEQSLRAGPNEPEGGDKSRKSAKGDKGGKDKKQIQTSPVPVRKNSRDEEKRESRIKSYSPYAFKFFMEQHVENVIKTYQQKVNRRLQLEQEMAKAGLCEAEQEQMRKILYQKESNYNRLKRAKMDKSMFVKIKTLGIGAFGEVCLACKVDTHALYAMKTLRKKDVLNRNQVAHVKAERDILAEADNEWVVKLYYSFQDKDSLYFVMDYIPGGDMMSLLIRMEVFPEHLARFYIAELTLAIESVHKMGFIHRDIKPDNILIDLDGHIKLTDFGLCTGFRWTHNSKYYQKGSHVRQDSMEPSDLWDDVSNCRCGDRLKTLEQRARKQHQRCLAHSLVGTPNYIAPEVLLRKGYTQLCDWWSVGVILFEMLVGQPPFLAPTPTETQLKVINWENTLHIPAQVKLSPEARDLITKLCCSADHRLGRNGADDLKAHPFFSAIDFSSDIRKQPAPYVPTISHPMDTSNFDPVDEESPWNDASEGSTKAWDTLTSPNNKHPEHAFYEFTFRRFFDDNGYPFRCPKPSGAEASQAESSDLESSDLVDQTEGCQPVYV

[10] = target: Casein kinase I isoform gamma-3 (Homo sapiens) (UniProt Q9Y6M4); assay: Selectivity interaction (KinomeScan (DiscoverX)) EUB0001619a CSNK1G3; details: at 1 µM
Sequence of Casein kinase I isoform gamma-3 (Homo sapiens) (Q9Y6M4 whole entry, looked up, canonical isoform): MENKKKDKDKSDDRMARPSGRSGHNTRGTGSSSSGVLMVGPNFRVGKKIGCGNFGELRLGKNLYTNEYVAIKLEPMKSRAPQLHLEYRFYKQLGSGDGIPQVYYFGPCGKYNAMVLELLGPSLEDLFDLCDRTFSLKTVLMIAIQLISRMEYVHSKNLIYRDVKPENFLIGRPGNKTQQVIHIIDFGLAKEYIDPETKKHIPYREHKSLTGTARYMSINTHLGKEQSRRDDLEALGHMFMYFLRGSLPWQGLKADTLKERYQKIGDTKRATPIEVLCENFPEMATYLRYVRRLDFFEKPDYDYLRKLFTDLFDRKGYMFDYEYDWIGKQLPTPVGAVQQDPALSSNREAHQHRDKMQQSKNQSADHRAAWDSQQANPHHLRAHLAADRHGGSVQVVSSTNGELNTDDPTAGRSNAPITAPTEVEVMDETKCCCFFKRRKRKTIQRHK

Sequence of Ribosomal protein S6 kinase alpha-1 (Q15418 whole entry): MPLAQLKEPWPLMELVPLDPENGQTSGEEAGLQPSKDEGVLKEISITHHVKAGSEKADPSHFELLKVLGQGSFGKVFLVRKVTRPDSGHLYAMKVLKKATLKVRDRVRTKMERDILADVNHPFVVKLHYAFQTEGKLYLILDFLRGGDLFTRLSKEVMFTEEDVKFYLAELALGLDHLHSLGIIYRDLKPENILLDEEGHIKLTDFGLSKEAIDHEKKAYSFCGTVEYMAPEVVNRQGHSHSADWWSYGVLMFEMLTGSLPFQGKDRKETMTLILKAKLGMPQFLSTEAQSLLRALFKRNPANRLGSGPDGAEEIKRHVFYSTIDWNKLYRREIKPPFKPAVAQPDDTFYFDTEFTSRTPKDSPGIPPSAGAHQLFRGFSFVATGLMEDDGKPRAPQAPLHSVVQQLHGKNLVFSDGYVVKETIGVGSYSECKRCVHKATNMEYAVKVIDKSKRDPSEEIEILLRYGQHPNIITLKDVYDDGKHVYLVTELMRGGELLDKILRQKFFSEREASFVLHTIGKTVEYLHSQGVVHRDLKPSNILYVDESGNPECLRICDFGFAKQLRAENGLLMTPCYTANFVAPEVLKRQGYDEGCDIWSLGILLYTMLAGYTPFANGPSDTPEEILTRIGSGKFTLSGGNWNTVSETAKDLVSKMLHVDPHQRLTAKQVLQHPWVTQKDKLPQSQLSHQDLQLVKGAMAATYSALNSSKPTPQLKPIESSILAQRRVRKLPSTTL
Sequence of Aurora kinase B (Q96GD4 whole entry): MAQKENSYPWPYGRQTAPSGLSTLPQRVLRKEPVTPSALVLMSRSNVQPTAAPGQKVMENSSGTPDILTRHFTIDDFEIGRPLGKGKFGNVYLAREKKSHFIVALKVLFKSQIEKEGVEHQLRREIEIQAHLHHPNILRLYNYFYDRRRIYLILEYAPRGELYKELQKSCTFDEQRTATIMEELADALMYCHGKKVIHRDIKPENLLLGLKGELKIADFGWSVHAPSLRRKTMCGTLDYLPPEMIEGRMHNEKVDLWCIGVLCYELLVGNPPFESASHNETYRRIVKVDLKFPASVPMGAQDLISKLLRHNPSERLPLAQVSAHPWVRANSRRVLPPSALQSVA
Sequence of RAF proto-oncogene serine/threonine-protein kinase (Homo sapiens) (P04049 whole entry): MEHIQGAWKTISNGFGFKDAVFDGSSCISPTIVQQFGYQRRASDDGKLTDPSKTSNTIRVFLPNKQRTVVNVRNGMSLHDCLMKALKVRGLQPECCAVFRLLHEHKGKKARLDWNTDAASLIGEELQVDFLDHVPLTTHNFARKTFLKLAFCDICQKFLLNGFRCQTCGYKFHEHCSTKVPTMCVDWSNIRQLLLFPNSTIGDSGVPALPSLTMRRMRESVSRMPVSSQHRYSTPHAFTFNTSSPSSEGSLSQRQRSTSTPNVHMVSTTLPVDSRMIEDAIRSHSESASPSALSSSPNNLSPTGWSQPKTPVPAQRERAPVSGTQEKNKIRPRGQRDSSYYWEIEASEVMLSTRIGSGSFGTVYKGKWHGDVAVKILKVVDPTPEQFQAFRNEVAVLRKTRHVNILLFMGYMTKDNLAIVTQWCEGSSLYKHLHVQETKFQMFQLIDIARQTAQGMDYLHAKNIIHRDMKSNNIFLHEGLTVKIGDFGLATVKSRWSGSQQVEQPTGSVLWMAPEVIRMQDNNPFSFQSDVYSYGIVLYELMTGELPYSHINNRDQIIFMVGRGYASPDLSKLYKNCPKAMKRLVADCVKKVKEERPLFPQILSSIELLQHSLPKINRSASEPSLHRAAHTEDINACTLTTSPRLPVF
Sequence of Atypical kinase COQ8A, mitochondrial (Q8NI60 163-647 limits assumed): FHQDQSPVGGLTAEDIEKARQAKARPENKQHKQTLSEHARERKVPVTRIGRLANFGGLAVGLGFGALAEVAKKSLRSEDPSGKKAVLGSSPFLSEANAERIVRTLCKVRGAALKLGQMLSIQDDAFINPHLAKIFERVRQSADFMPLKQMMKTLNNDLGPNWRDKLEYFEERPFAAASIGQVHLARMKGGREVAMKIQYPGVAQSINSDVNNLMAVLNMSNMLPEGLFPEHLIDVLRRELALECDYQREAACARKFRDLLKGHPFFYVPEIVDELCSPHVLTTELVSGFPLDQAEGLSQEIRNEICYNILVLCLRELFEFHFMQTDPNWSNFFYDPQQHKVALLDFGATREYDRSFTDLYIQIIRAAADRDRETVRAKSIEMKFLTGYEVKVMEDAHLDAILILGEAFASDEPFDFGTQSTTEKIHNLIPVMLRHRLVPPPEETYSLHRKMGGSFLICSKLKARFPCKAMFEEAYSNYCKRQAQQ
Sequence of Tyrosine-protein kinase JAK1 (P23458 whole entry): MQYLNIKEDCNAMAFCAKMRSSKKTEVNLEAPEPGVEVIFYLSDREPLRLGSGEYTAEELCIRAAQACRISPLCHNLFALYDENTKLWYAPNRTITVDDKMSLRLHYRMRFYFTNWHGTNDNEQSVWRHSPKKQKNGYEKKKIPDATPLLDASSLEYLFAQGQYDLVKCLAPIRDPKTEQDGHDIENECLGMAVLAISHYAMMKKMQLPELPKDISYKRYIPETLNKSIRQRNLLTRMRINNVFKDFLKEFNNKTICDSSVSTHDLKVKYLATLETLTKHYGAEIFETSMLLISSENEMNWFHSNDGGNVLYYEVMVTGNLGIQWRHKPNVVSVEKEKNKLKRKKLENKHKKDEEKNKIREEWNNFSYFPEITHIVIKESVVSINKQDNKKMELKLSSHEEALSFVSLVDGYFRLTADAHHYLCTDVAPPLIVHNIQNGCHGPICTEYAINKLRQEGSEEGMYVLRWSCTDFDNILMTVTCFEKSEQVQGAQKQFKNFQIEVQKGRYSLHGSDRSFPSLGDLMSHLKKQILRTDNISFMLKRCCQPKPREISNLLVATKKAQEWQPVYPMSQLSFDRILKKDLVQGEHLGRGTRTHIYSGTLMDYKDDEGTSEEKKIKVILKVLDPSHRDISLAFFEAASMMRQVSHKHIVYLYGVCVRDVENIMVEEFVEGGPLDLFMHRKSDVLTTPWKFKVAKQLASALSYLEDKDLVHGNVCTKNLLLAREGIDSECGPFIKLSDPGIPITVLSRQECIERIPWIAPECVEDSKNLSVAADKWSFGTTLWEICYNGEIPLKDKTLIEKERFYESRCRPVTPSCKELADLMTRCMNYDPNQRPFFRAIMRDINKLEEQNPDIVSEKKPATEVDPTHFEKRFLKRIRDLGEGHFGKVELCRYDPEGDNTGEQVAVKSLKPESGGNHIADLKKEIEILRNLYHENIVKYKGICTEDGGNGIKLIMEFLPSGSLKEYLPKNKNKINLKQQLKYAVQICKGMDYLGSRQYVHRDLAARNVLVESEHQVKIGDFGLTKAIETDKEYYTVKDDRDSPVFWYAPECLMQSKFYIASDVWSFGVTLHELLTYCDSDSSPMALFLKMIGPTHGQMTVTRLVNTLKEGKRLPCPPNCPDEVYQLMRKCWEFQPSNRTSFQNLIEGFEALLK
Sequence of Cyclin-dependent kinase 18 (Homo sapiens) (Q07002 whole entry): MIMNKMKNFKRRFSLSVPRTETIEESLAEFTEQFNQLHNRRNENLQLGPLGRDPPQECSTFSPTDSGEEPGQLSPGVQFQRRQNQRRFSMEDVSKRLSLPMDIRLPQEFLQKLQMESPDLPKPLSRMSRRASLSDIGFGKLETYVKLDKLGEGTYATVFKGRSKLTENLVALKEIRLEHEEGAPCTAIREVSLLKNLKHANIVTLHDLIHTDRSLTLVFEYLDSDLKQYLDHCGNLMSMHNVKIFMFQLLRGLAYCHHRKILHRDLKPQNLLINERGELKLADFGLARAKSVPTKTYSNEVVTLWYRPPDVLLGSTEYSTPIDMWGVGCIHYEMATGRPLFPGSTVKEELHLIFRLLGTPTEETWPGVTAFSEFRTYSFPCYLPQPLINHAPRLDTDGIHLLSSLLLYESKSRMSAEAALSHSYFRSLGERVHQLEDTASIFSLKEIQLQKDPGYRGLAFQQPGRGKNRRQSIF

- % of inhibition [1]: 15.9%
- % of inhibition [2]: 23.9%
Structure (SMILES): CC[C@@H]1[C@H](F)C(=O)N[C@@H]1COc1nccc2cc(C(N)=O)c(OC)cc12 [ZIMLOVISERTIB]

Structure (SMILES): COc1cc(Nc2nc(C)cc(-c3cnn4nc(OC)ccc34)n2)cc(C(F)(F)F)c1
- % of control [3]: 87%

Structure (SMILES): Nc1cnc(N2CCc3cc(S(=O)(=O)Nc4c(F)cc(Cl)cc4F)cc(N4CCCC4=O)c32)nc1 [TP-020n]
- % of control [4]: 89%

- % of control (Aurora kinase B): 23%
Structure (SMILES): CN(C)CC#Cc1ccc2[nH]c3c(c2c1)-c1nc(N)ncc1CCC3

Structure (SMILES): Cc1cc([C@@H](C)Nc2ccccc2C(=O)O)c2nc(N3CCOCC3)cc(=O)n2c1 [AZD-6482]
- % of control [5]: 61%
- % of control [6]: 100%

Structure (SMILES): O[C@H]1CC[C@H](Nc2ncc3nc(Nc4c(F)cc(F)cc4F)n([C@H]4CCOC4)c3n2)CC1
- % of control [7]: 35%
- % of control [8]: 98%

Structure (SMILES): N#Cc1cccc(-c2c[nH]c3ncnc(N4CCOCC4)c23)c1
- % of inhibition [9]: 16%
- % of control [10]: 100%
